This is an account of results in paper PMC5100903, “Tissue Kallikrein Inhibitors Based on the Sunflower Trypsin Inhibitor Scaffold – A Potential Therapeutic Intervention for Skin Diseases” (PLoS ONE, 2016).

SMILES strings stand for the structures. Like-named read-outs stand apart in the source and are kept apart here. Positions of bridges follow the written chain, without caps; N, C: chain ends. Residues, ends and D or L forms follow the SMILES beside them.

The target of test [1] is T1, KLK5 (Homo sapiens, UniProt Q9Y337).
T1 construct: purchased Novoprotein
T1 sequence (Q9Y337 23-293): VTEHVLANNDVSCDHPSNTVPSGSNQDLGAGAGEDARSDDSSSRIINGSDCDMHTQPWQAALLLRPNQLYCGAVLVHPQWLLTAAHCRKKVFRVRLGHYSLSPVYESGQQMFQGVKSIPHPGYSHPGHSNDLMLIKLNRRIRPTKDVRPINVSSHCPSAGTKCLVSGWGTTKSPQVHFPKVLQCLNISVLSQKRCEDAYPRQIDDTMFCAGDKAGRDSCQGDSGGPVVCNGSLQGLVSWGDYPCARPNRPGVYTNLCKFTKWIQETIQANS
Kind of test: biochemical. On the procedure: (§1) All assays were performed on 96-well microplates and the change in relative fluorescence unit (RFU) was measured by fluorescence spectrometer (BMG FLUOstar OPTIMA). The excitation/emission wavelength was 360/460 nm for the substrate Boc-VPR-AMC (Bachem AG, Hauptstrasse, Switzerland) and MeOSuc-AAPV-AMC (Bachem AG, Hauptstrasse, Switzerland) and 485/520 nm for BODIPY_FL casein (Invitrogen, Carlsbad, US). Stock solution of Boc-VPR-AMC was prepared by dissolving the solid in dimethyl sulfoxide to 100 mM and 10 mM for MeOSuc-AAPV. For BODIPY_FL casein, it was reconstituted to 1 mg/mL in 1xPBS. […] The % of inhibition was calculated by the following equation: % of Inhibition=(1−(Sample RFU − Min RFU)/(Max RFU − Min RFU)) X100
(§2) Each inhibition curves were done in triplicates with a minimum of five concentration points fitted. Fitting of each curve was done using SigmaPlot with the Four Parameter Logistic Function and the IC50 calculated. […] All tested compounds were reconstituted to stock solution in water.
(§3) The diluent for all the tested compounds, protein and substrate (except KLK7, which was done with 10 mM Tris pH 7.8) was 1xPBS pH 8.0–8.9. The serially diluted ligands were mixed with diluted bovine trypsin (Sigma, Dorset, U.K.) or activated KLK14, or KLK5, or activated KLK8 or matriptase (catalytic domain only, >90% purity by SDS-PAGE, endotoxin <0.1 ng/μg, R&D, Minneapolis, U.S.) or activated KLK7 or human neutrophil elastase (purified from human plasma, >95% purity by SDS-PAGE, Abcam, Cambridge, U.K.) or porcine pancreatic elastase 1 (Sigma, Dorset, U.K.) or human plasma kallikrein or human plasma plasmin (purified from human plasma, ≥95% purity by SDS-PAGE, BioVision, Milpitas, U.S.). 20μL of the ligand-protein mixture was pipetted to a well of a 96-well microplate in triplicates. The reaction was started by addition of 90–100 μL of the diluted substrate solution (contained 0.05% v/v Brij35) and the plate incubated at 25°C but 37°C for KLK7. RFU reading for each well was taken 6 minutes (trypsin) or 15 minutes (KLK14, KLK5, KLK8, matriptase, human neutrophil elastase, porcine pancreatic elastase 1, plasma kallikrein and plasmin) or 20 hours (KLK7) after substrate addition.
There are two previously reported Km values for KLK5 and its substrate Boc-VPR-AMC which allowed the IC50 to Ki conversion. Ki values were calculated according to the Cheng-Prusoff equation Ki= IC50/1+[S]/Km for single site competitive binding.

In test [2] the target is T2, KLK7 (Homo sapiens, UniProt P49862).
T2 construct: purchased R&D
T2 sequence (P49862 30-253): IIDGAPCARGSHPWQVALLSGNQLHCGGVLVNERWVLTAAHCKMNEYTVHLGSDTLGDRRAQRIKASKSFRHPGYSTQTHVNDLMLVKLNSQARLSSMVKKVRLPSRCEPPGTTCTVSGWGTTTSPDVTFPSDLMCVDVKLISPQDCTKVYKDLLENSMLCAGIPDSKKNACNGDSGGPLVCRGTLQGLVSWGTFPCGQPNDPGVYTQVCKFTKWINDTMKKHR
Kind of test: biochemical. The note with it: for inhibition at 11 µM: read-out: % inhibition of KLK7. On the procedure: as §1, §2
(§4) Recombinant KLK7, KLK8 and KLK14 (>95% purity by SDS-PAGE, endotoxin <0.1 ng/μg, R&D, Minneapolis, U.S.) stocks were diluted with 1xPBS to a concentration of 120 nM. KLK7 and KLK14 were activated by addition of 1 mM f/c CaCl2 (Sigma, Dorset, U.K.), 0.05% v/v Brij35 (Sigma, Dorset, U.K.), 20 nM f/c thermolysin (Sigma, Dorset, U.K.) and incubated at 37°C for 1 hour. The reaction was stopped by addition of ethylenediaminetetraacetic acid (EDTA, 50 mM f/c). KLK8 was activated by addition of 11 nM f/c lysyl endopeptidase (Santa Cruz Biotechnology, Dallas, U.S.) and incubation at 37°C for 0.5 hour. […] The RFU value reached by the thermolysin control was used as the minimum RFU for calculating the % of inhibition for KLK7.
as §3

Test [3] concerns the target T3, KLK8 (Homo sapiens, UniProt O60259).
T3 construct: purchased R&D
T3 sequence (O60259 33-260): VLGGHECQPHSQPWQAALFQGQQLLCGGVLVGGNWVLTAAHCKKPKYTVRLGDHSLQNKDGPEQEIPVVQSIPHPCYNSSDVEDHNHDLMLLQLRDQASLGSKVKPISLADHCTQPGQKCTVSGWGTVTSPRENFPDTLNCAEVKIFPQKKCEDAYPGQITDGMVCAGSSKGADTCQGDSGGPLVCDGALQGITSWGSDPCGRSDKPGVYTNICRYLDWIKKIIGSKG
Kind of test: biochemical. How it is done: as §1, §2, §4, §3

Test [4] deals with T4, Porcine Pancreatic Elastase 1 (Sus scrofa, UniProt P00772).
T4 construct: purchased Sigma
T4 sequence (P00772 27-266): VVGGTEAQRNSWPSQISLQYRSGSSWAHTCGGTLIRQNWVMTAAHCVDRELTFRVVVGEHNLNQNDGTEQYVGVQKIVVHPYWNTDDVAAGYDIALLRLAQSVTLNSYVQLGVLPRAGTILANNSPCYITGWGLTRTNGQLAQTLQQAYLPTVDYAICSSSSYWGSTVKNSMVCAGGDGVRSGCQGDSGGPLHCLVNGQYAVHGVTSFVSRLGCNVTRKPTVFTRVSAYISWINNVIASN
Kind of test: Porcine pancreatic elastase 1 inhibition, MeOSuc-AAPV-AMC assay. The note with it: read-out: % inhibition of Porcine Pancreatic Elastase 1. The format is biochemical. How it is done: as §1, §2, §3

Test [5] concerns the target Human Plasma Kallikrein (Homo sapiens, UniProt P03952). Kind of test: Human plasma kallikrein inhibition, Boc-VPR-AMC assay. Type of test: biochemical. The note with it: read-out: % inhibition of Human Plasma Kallikrein. How it is done: as §1, §2, §3
[6] abbreviates: calculated from Table 3 IC50 by Cheng-Prusoff equation, read-out: Ki, KLK5 (converted).
Setting [7] is: enzyme 10 nM, Boc-VPR-AMC 42 μM, 1xPBS pH 8.0–8.9, 25°C, 15 minutes.
[8] abbreviates: at 11 μM, enzyme 10 nM, BODIPY_FL casein 6.5 μg/mL, 37°C, 20 hours.
[9] abbreviates: enzyme 9 nM, Boc-VPR-AMC 42 μM, 25°C, 15 minutes.
The mark [10] stands for this setting: at 10 μM, enzyme 46 nM, MeOSuc-AAPV-AMC 41 μM.
Setting [11] is: at 10 μM, enzyme 14 nM, Boc-VPR-AMC 42 μM.

Chain of Human Plasma Kallikrein (P03952 20-638): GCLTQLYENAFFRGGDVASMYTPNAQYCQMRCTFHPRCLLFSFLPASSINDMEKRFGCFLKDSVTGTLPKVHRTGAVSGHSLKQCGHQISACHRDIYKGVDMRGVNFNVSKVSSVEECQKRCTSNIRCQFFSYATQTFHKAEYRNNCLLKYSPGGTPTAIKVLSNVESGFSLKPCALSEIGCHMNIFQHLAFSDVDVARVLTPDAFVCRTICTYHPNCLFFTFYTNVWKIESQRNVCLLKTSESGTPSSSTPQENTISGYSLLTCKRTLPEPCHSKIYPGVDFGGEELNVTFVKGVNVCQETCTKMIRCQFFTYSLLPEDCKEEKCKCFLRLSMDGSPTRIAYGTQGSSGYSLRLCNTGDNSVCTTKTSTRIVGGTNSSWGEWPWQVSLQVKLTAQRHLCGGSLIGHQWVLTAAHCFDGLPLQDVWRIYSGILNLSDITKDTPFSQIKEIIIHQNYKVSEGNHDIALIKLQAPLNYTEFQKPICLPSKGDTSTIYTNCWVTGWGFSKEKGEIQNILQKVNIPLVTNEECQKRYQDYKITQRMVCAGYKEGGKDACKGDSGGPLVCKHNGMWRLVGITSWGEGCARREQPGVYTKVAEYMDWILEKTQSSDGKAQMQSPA

In general, IC50 refers to the point on the concentration scale where inhibition reaches its midpoint. The low end stands for greater potency in that assay, the high end for weaker potency in that assay. The Ki is a measure of affinity in units of concentration, obtained from inhibition or displacement. The term inhibition denotes the drop in the measured response relative to a control, in per cent. As to `CC[C@H](C)[C@@H]1NC(=O)[C@H](CO)NC(=O)[C@H](CCCNC(=N)N)NC(=O)[C@H]([C@@H](C)O)NC(=O)[C@@H]2CSSC[C@H](NC(=O)[C@H](Cc3c[nH]cn3)NC(=O)[C@@H]3CCCN3C(=O)[C@@H]3CCCN3C1=O)C(=O)N[C@@H](Cc1c[nH]c3ccccc13)C(=O)N1CCC[C@H]1C(=O)N[C@@H](CC(=O)O)C(=O)NCC(=O)N[C@@H](CCCNC(=N)N)C(=O)N2` [Analogue 6] (cyclo(CTRSIPPHCWPDGR); disulfide 1-9), the values for the IC50 in test [1], in test [2] and in test [3] were 56 ± 0.5 nM, 534 ± 29 nM and 373 ± 31 nM, respectively. The same molecule had a Ki in test [1] of 51 nM. Also, the inhibition at 10 µM in test [4] is 0%; in test [5], 15%.

For the molecule `CC[C@H](C)[C@@H]1NC(=O)[C@H](CO)NC(=O)[C@H](CCCCN)NC(=O)[C@H]([C@@H](C)O)NC(=O)[C@@H]2CSSC[C@H](NC(=O)[C@H](Cc3c[nH]cn3)NC(=O)[C@@H]3CCCN3C(=O)[C@@H]3CCCN3C1=O)C(=O)N[C@@H](Cc1c[nH]c3ccccc13)C(=O)N1CCC[C@H]1C(=O)N[C@@H](CC(=O)O)C(=O)NCC(=O)N[C@@H](CCCNC(=N)N)C(=O)N2` [Analogue 2] (cyclo(CTKSIPPHCWPDGR); disulfide 1-9), the inhibition at 11 µM in test [2] amounted to 28%. Moreover, in test [3], it took 563 ± 14 nM to reach half-maximal inhibition (IC50). Further, the inhibition at 10 µM in test [4] and in test [5] was 0% throughout.

As for `CC[C@H](C)[C@@H]1NC(=O)[C@@H]2CCCN2C(=O)[C@@H]2CCCN2C(=O)[C@H]([C@@H](C)CC)NC(=O)[C@H](CO)NC(=O)[C@H](CCCCN)NC(=O)[C@H]([C@@H](C)O)NC(=O)[C@@H]2CSSC[C@H](NC1=O)C(=O)N[C@@H](Cc1ccccc1)C(=O)N1CCC[C@H]1C(=O)N[C@@H](CC(=O)O)C(=O)NCC(=O)N[C@@H](CCCNC(=N)N)C(=O)N2` [Native SFTI, Sunflower Trypsin Inhibitor 1, reference compound], the Ki in test [1] (setting [6]) is 210 nM. Further, the IC50 in test [1] (setting [7]) was determined as 230 ± 3 nM; in test [3] (setting [9]), 1290 ± 251 nM. Moreover, in test [2] (setting [8]), the inhibition at 11 µM was 18%. Also, the inhibition at 10 µM in test [4] (setting [10]) and in test [5] (setting [11]) was 0% in each case.

As to `CC[C@H](C)[C@@H]1NC(=O)[C@H](CO)NC(=O)[C@H](CCCCN)NC(=O)[C@H]([C@@H](C)O)NC(=O)[C@@H]2CSSC[C@H](NC(=O)[C@H](Cc3c[nH]cn3)NC(=O)[C@@H]3CCCN3C(=O)[C@@H]3CCCN3C1=O)C(=O)N[C@@H](Cc1ccccc1)C(=O)N1CCC[C@H]1C(=O)N[C@@H](CC(=O)O)C(=O)NCC(=O)N[C@@H](CCCNC(=N)N)C(=O)N2` [Analogue I10H] (cyclo(CFPDGRCTKSIPPH); disulfide 1-7), in test [1] (setting [6]), the Ki is 478 nM. Besides, the IC50 in test [1] (setting [7]) stood at 523 ± 11 nM; in test [3] (setting [9]), 1680 ± 51 nM. Besides, the inhibition at 11 µM in test [2] (setting [8]) was 0%. For the same molecule, the inhibition at 10 µM in test [4] (setting [10]) and in test [5] (setting [11]) was 0% in each case.
